The record followed here is patent US20260157955A1, “DEDIFFERENTIATED PLANT CELLS OF THE GENUS PAEONIA, EXTRACTS THEREOF AND COSMETIC USES THEREOF” (L'OREAL, priority 2021, published 2026).

Common to all, as to format: cell-based
What all share (settings): 0.1 μM, 24 hours, human epidermal keratinocytes, n=2, vs control

For one assay, the system named is SPRR1A. The experiment in a line: Expression of transcripts in human keratinocytes (RT-qPCR): SPRR1A. The procedure: (§1) Human epidermal keratinocytes were seeded in a 24-well culture plate and cultured for 72 hours at 37° C. and 5% CO2 in culture medium with renewal of the culture medium after the first 24 hours. At the end of the incubation, the culture medium was replaced with assay medium (supplemented with 1.5 mM CaCl2) containing starting or reference material (retinoic acid) or not containing same (control), and cells were incubated for another 24 hours. All the experimental conditions were performed in n=2. At the end of the treatment, the cells were washed twice in PBS (without CaCl2, without MgCl2) and RNA extraction was carried out using TriPure Isolation Reagent® according to the manufacturer's recommendations. The relative expression of the selected markers was measured by two-step RT-qPCR. First, reverse transcription was performed with the aid of Transcriptor Reverse Transcriptase (Roche) according to the manufacturer's recommendations. Then, PCR experiments were performed using a LightCycler® 480 real-time PCR system with a SYBR®Green incorporation measurement system (Roche).

The next assay relates to CNFN. The experiment in a line: Expression of transcripts in human keratinocytes (RT-qPCR): CNFN. The procedure:
as §1
In general terms: In qPCR the cycle at which signal appears reflects the starting amount.

The next assay relates to CLDN1. The assay is described as follows: Expression of transcripts in human keratinocytes (RT-qPCR): CLDN1. The procedure:
as §1

The next assay concerns AQP3. The assay is described as follows: Expression of transcripts in human keratinocytes (RT-qPCR): AQP3. The procedure:
as §1

In another assay the test system is TGM1. The assay is described as follows: Expression of transcripts in human keratinocytes (RT-qPCR): TGM1. The procedure:
as §1

In the case of `CC1=C(/C=C/C(C)=C/C=C/C(C)=C/C(=O)O)C(C)(C)CCC1` [Retinoic acid, retinoic acid], the “relative expression of SPRR1A” value with SPRR1A is reported as 0.26. For the same compound, the “relative expression of CNFN” value with CNFN came out at 0.46. The “relative expression of CLDN1” value with CLDN1 worked out at 0.85. The “relative expression of AQP3” value in the assay on AQP3 is 1.04. The “relative expression of TGM1” value with TGM1 is 0.49.
